{
  "source": "patent US20240350503A1",
  "about": "“COMPOUNDS FOR TREATMENT OF VIRAL INFECTIONS BY NEUROTROPIC VIRUS” (priority 2021, published 2024)",
  "test_system": "SARS-CoV-2",
  "format": "cell-based, SARS-CoV-2 alpha variant",
  "note": "Entries after “also recorded” stand apart in the source; their conditions may differ.",
  "data": [
    {"smiles": "c1ccc(-c2ccc(CNc3nc(-c4ccccn4)nnc3-c3ccccc3)cc2)cc1", "note": "[ML228]", "values": [
      {"measurement": "SARS-CoV-2 replication (virus N2 RNA level)", "value": "strongly reduced; also recorded: significantly decreased"}
    ]}
  ]
}
